The text below walks through data of US8143259B2, “Cold menthol receptor antagonists” (Janssen Pharmaceutica, NV, priority 2008, dated 2012).

The term IC50 denotes the concentration at which inhibition is half-maximal. Lower therefore signals inhibition by little substance. As usually defined, the inhibition is the relative decrease from the control value, in per cent.

The target of this assay is T1, canine TRPM8 (Canis lupus familiaris, UniProt Q1A7N1).
T1 construct: expressed in transfected cells
T1 sequence (Q1A7N1 1-1104): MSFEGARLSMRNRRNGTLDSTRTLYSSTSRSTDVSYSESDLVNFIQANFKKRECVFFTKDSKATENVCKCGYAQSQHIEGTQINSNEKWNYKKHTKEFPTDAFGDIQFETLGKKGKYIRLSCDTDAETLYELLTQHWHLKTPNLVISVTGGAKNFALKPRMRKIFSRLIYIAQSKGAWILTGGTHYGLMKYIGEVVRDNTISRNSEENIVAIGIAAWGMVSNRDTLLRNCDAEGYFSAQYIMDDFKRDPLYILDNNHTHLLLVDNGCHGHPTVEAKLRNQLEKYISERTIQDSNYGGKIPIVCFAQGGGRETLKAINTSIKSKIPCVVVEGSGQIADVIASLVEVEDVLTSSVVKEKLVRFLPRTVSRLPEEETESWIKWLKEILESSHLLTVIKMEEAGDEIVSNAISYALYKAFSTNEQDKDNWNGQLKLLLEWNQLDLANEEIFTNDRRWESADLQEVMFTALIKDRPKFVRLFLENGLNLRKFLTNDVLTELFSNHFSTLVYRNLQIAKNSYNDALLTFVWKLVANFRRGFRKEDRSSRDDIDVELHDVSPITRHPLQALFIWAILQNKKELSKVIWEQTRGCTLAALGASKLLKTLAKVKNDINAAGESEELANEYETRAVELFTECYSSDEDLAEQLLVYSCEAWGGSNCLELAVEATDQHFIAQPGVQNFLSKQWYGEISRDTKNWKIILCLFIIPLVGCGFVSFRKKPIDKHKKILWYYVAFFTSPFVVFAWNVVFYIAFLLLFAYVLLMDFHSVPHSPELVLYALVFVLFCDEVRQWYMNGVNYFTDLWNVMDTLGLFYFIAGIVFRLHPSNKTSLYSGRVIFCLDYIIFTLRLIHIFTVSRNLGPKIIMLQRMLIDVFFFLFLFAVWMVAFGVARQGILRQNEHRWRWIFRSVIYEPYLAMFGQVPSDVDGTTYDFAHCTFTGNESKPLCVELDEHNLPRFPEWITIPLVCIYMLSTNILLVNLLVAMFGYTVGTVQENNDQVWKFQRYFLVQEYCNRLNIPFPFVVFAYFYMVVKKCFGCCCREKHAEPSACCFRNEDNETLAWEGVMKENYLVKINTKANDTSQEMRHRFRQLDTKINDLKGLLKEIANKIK
The assay can be described thus: In Vitro Canine TRPM8 Functional Assay (Ca2+ fluorescence, icilin activation). As to conditions: for % Inh @ 0.2 μM: 0.2 μM compound; for IC50: HEK293 cells stably expressing canine TRPM8, icilin activation, Ca2+ fluorescence; for % Inh @ 0.5 μM: 0.5 μM compound; for inhibition at 0.2 µM: HEK293, 0.2 μM compound; for inhibition at 0.5 µM: HEK293, 0.5 μM compound; for inhibition at 1 µM: HEK293, 1 μM compound. The class given is cell-based. The method in brief:
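HEK293 cells stably expressing canine TRPM8, loaded with Calcium 3 dye; compounds added 5 min before icilin at a concentration giving ~80% maximal response. Peak icilin-evoked Ca2+ fluorescence, basal-subtracted and normalised to maximal response, fitted by sigmoidal nonlinear regression; quadruplicate wells.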

Where [1] appears, read: canine TRPM8 HEK293, icilin, 0.2 µM.
The mark [2] stands for this setting: canine TRPM8 HEK293, icilin, 0.5 µM.

Each structure is given as a SMILES string. “And” between values parts separate entries of the source, which are not always exact repeats. Identical values can stand only once.

As for `COc1ccccc1C1CCCN1C(=O)C(Nc1ccccc1F)c1ccc(Br)cc1` (single isomer, unassigned) [Cpd 176], the IC50 was 30 nM. Also, under setting [1], the “% Inh @ 0.2 μM” value is on record as 94%.
As to `CC(C)(C)c1ccc(C(Nc2ccccc2)C(=O)N2CCCC2c2ccccn2)cc1` (centres unmarked) [Cpd 54], the “% Inh @ 0.5 μM” value under setting [2] is 69.055%.
In turn, `O=C(C(Nc1ccccc1F)c1ccc(N2CCCCC2)nc1)N1CCC[C@H]1c1ccccc1F` (mixture of isomers) [Cpd 334, 2-(2-Fluoro-phenylamino)-1-[(2S)-2-(2-fluoro-phenyl)-pyrrolidin-1-yl]-2-(3,4,5,6-tetrahydro-2H-[1,2′]bipyridinyl-5′-yl)-ethanone] returned a half-maximal inhibitory concentration (IC50) of 5 nM. For the same compound, under “canine TRPM8 HEK293, icilin”, the inhibition at 0.2 µM was 101%.
The like results for `O=C(C(Nc1ccccc1)c1cnc2ccccc2c1)N1CCCC1c1ccccc1F` (centres unmarked) [Cpd 264] were, in that order, 43 nM and 93%.
On the same counts, the results for `COc1ccccc1C1CCCN1C(=O)C(Nc1ccccc1F)c1cnc2ccccc2c1` (single isomer, unassigned) [Cpd 277] are 8 nM and 101%.
Consider `COc1ccccc1C1CCCN1C(=O)C(Nc1ccccc1F)c1cnc2ccccc2c1` (single isomer, unassigned) [Cpd 278], for which the IC50 is 31 nM and 36 nM. Under setting [1], the “% Inh @ 0.2 μM” value is 94% and 101%.
`O=C(C(CNc1ccccc1F)c1ccc(C(F)(F)F)cc1)N1CCCC1c1ccccc1` (centres unmarked) [Cpd 108] gave an IC50 of 329 nM. Further, where the note is “canine TRPM8 HEK293, icilin”, the inhibition at 0.5 µM was 88%.
With `O=C(C(Nc1ccccc1F)c1ccc(Br)cc1)N1[C@H](CO)CC[C@@H]1c1ccccc1` (mixture of isomers) [Cpd 238], the IC50 worked out at 112 nM.
`COC(=O)c1cc(C(Nc2ccccc2F)C(=O)N2CCCC2c2ccccc2F)ccc1Cl` (mixture of isomers) [Cpd 309] came in with a 50% inhibitory concentration (IC50) of 13 nM. Further, the “% Inh @ 0.2 μM” value (canine TRPM8 HEK293, icilin) was 102%.
In turn, `O=C(C(Nc1ccccc1F)c1ccc(-n2ccnc2)cc1)N1CCCC1c1ccccc1F` (centres unmarked) [Cpd 301] gave an IC50 of 35 nM. Moreover, the inhibition at 0.2 µM (canine TRPM8 HEK293, icilin) came out at 99%.
As for `O=C(C(Nc1ccccc1F)c1ccc(C(F)(F)F)cc1)N1CCCC1c1cccc(F)c1` (single isomer, unassigned) [Cpd 187], half-maximal inhibition (IC50) was put at 4 nM. Besides, the “% Inh @ 0.2 μM” value under setting [1] is 98%.
Turning to `O=C(C(Nc1ccccc1)c1ccc(C(F)(F)F)cc1)N1CCCC1c1ccccc1Cl` (single isomer, unassigned) [Cpd 21], the midpoint of inhibition, the IC50, lay at 175 nM. Where the note is “canine TRPM8 HEK293, icilin”, the inhibition at 0.5 µM worked out at 103%.
With `O=C(C(Nc1ccccc1)c1ccc(Cl)cc1)N1CCCC1c1ccccc1` (centres unmarked) [Cpd 86], half-maximal inhibition (IC50) required 15 nM. Also, the inhibition at 0.5 µM (canine TRPM8 HEK293, icilin) came out at 97%.
`CC(C)(C)c1ccc(C(Nc2ccccc2)C(=O)N2CCCC2c2cccc(Cl)c2)cc1` (single isomer, unassigned) [Cpd 8] yielded an IC50 of 778 nM. For the same compound, the inhibition at 1 µM (canine TRPM8 HEK293, icilin) was 86.6%.
Take `COc1ccccc1C1CCCN1C(=O)C(Nc1ccccc1)c1cccc(C(F)(F)F)c1` (centres unmarked) [Cpd 98]: 56 nM corresponded to half-maximal inhibition (IC50). The inhibition at 0.5 µM (canine TRPM8 HEK293, icilin) is 100%.
For `O=C(C(Nc1ccccc1F)c1ccc(-c2cncnc2)cc1)N1CCCC1c1ccccc1F` (centres unmarked) [Cpd 288], the concentration for half-maximal inhibition (IC50) was 9 nM and 10 nM. Besides, the “% Inh @ 0.2 μM” value under setting [1] was found to be 95%. In addition, the inhibition at 0.2 µM (canine TRPM8 HEK293, icilin) was found to be 91%.
`O=C(C(Nc1ccccc1F)c1cc2ccccc2s1)N1CCCC1c1ccccc1F` (centres unmarked) [Cpd 225, 2-Benzo[b]thiophen-2-yl-2-(2-fluoro-phenylamino)-1-[2-(2-fluoro-phenyl)-pyrrolidin-1-yl]-ethanone]: the IC50 turned out to be 7 nM. Besides, the inhibition at 0.2 µM (canine TRPM8 HEK293, icilin) was determined as 98%.
With `CC(C)(C)c1ccc(C(Nc2ccccc2)C(=O)N2CCCCC2Cc2ccccc2)cc1` (centres unmarked) [Cpd 14], half-maximal inhibition (IC50) was put at 416 nM. The inhibition at 1 µM (canine TRPM8 HEK293, icilin) was 102%.
For `O=C(C(Nc1ccccc1F)c1ccc(C(F)(F)F)cc1)N1CCCC1c1ccccn1` (centres unmarked) [Cpd 202], half-maximal inhibition (IC50) required 25 nM. Also, the inhibition at 0.2 µM (canine TRPM8 HEK293, icilin) amounted to 100%.
For the compound `COc1ccc(C(Nc2ccccc2)C(=O)N2CCCC2c2ccccc2)cc1` (centres unmarked) [Cpd 72], half-maximal inhibition (IC50) was put at 46 nM. The inhibition at 0.5 µM (canine TRPM8 HEK293, icilin) was 102%.
Consider `O=C(C(Nc1ccccc1)c1ccc(C(F)(F)F)cc1)N1CCCC1c1cccs1` (centres unmarked) [Cpd 24], for which the IC50 worked out at 14.9 nM. Moreover, for the setting “canine TRPM8 HEK293, icilin”, the inhibition at 0.5 µM came to 102%.
In turn, `O=C(C(Nc1ccccc1)c1ccc(C(F)(F)F)cc1)N1CCc2ccccc21` (centres unmarked) [Cpd 33] yielded an IC50 of 202 nM. Moreover, where the note is “canine TRPM8 HEK293, icilin”, the inhibition at 0.5 µM came to 96.5%.
For the compound `CN(C)c1ccc(C2CCCN2C(=O)C(Nc2c(F)cccc2F)c2ccc(Cl)cc2)cc1` (centres unmarked) [Cpd 273], the IC50 was 104 nM. Moreover, the inhibition at 0.2 µM (canine TRPM8 HEK293, icilin) was determined as 98%.
`O=C(C(Nc1ccccc1)c1ccc(C(F)(F)F)cc1)N1CCCC1c1ccccc1F` (single isomer, unassigned) [Cpd 46]: it took 7.46 nM to reach half-maximal inhibition (IC50). In addition, the “% Inh @ 0.5 μM” value under setting [2] worked out at 101.53%.
Turning to `O=C(C(Cc1cccc(F)c1F)c1ccc(C(F)(F)F)cc1)N1CCCC1c1ccccc1F` (centres unmarked) [Cpd 253], inhibition was half-maximal at 65.8 nM (IC50). For the same compound, the inhibition at 0.2 µM (canine TRPM8 HEK293, icilin) came out at 89%.
For the compound `COc1ccccc1C1CCCN1C(=O)C(Nc1c(F)cccc1F)c1ccc(Cl)cc1` (centres unmarked) [Cpd 145], the IC50 stood at 16 nM. The inhibition at 0.5 µM (canine TRPM8 HEK293, icilin) was determined as 99%.
Regarding `O=C(C(Nc1ccc(F)cc1)c1ccc(Cl)cc1)N1Cc2cccc(F)c2C1` (centres unmarked) [Cpd 121], the IC50 stood at 125 nM. Further, where the note is “canine TRPM8 HEK293, icilin”, the inhibition at 0.5 µM amounted to 97%.
On the same counts, the results for `O=C(C(Nc1ccccc1)c1ccc(C(F)(F)F)cc1)N1CCCC1c1ccncc1` (centres unmarked) [Cpd 28] are 91.7 nM and 103%.
As for `O=C(C(Nc1ccccc1)c1ccc(C(F)(F)F)cc1)N1CCCC1c1cc2ccccc2[nH]1` (centres unmarked) [Cpd 26], the “% Inh @ 0.5 μM” value under setting [2] is on record as 56.872%.
For the compound `O=C(C(Nc1ccccc1F)c1ccc(-c2ccccn2)cc1)N1CCC[C@H]1c1ccccc1F` (mixture of isomers) [Cpd 289], the IC50 is 12 nM. The inhibition at 0.2 µM (canine TRPM8 HEK293, icilin) was 84%.
`Cc1nc2ccc(C(Nc3ccccc3F)C(=O)N3CCCC3c3ccccc3F)cc2s1` (single isomer, unassigned) [Cpd 340] gave an IC50 of 5 nM. Besides, under “canine TRPM8 HEK293, icilin”, the inhibition at 0.2 µM came out at 101%.
On the same counts, the results for `COc1ccccc1C1CCCN1C(=O)C(Nc1cc(F)ccc1F)c1ccc(Cl)cc1` (centres unmarked) [Cpd 172] are 29.6 nM and 102%.
As for `CN1CCN(NC(=O)[C@H](Nc2ccccc2)c2ccc(C(C)(C)C)cc2)[C@H](c2ccccc2)C1` (relative stereo) [Cpd 56, (2RS*)-2-(4-tert-Butyl-phenyl)-N-[(2RS*)-4-methyl-2-phenyl-piperazin-1-yl]-2-phenylamino-acetamide], the “% Inh @ 0.5 μM” value (canine TRPM8 HEK293, icilin) was found to be 26%.
`O=C(C(Nc1ccccc1)c1ccc(C(F)(F)F)cc1)N1CCCC1c1ccccc1Cl` (racemic) [Cpd 16] returned an IC50 of 21.6 nM. In addition, the inhibition at 1 µM (canine TRPM8 HEK293, icilin) was found to be 103%.
`O=C(C(Nc1ccccc1F)c1ccc2ncccc2c1)N1CCCC1c1ccccc1F` (single isomer, unassigned) [Cpd 251] registered a half-maximal inhibitory concentration (IC50) of 53.7 nM. Under setting [1], the “% Inh @ 0.2 μM” value came out at 90%.
As for `O=C(C(Nc1ccccc1F)c1ccc2c(c1)CCO2)N1CCC[C@H]1c1ccccc1F` (mixture of isomers) [Cpd 286], the IC50 is 14 nM. For the same compound, the inhibition at 0.2 µM (canine TRPM8 HEK293, icilin) came out at 96%.
For `CNC(=O)c1ccc(C(Nc2c(F)cccc2F)C(=O)N2CCCC2c2ccccc2F)cc1` (mixture of isomers) [Cpd 265], where the note is “canine TRPM8 HEK293, icilin”, the “% Inh @ 0.2 μM” value was found to be 15%.
For `COC(=O)C1CCC(c2ccccc2)N1C(=O)C(Nc1ccccc1F)c1ccc(Br)cc1` (single isomer, unassigned) [Cpd 209], the 50% inhibitory concentration (IC50) came out at 99 nM. In addition, under setting [1], the “% Inh @ 0.2 μM” value came out at 94%.
In the case of `O=C(C(Nc1ccccc1F)c1ccc(Br)cc1)N1CCc2ccccc2C1` (centres unmarked) [Cpd 93], the IC50 is 176 nM. In addition, for the setting “canine TRPM8 HEK293, icilin”, the inhibition at 0.5 µM was found to be 95%.
With `O=C(C(Nc1ccccc1F)c1cc2ccccc2s1)N1CCCC1c1ccccn1` (single isomer, unassigned) [Cpd 330], the IC50 amounted to 6 nM. Moreover, under “canine TRPM8 HEK293, icilin”, the inhibition at 0.2 µM was 101%.
`O=C(C(Nc1ccccc1)c1ccc(C(F)(F)F)cc1)N1CCCC1c1ccccc1Cl` (single isomer, unassigned) [Cpd 369]: the “% Inh @ 0.5 μM” value (canine TRPM8 HEK293, icilin) is listed as 7.773%. Further, the “% Inh @ 3 μM” value (3 μM compound, canine TRPM8 HEK293, icilin) came to 48%.
The compound `O=C(C(Nc1ccccc1)c1ccc(C(F)(F)F)cc1)N1CCCC1c1ccccc1` (centres unmarked) [Cpd 17] registered a half-maximal inhibitory concentration (IC50) of 60.3 nM. Besides, under “canine TRPM8 HEK293, icilin”, the inhibition at 1 µM amounted to 98.2%.
On to `O=C(C(Nc1ccccc1F)c1ccc(N2CCOCC2)nc1)N1CCCC1c1ccccc1F` (centres unmarked) [Cpd 359], for which the IC50 turned out to be 7 nM. Where the note is “canine TRPM8 HEK293, icilin”, the inhibition at 0.2 µM amounted to 100%.
Consider `O=C(C(Nc1cccc(Cl)c1)c1ccc(C(F)(F)F)cc1)N1CCc2ccccc21` (racemic) [Cpd 38], for which the “% Inh @ 0.5 μM” value (canine TRPM8 HEK293, icilin) is listed as 63.009%.
Turning to `CC(C)(C)c1ccc(C(Nc2ccccc2)C(=O)N2CCCC2c2ccccc2Cl)cc1` (single isomer, unassigned) [Cpd 1], the half-inhibitory concentration (IC50) worked out at 313 nM. Moreover, where the note is “canine TRPM8 HEK293, icilin”, the inhibition at 1 µM came out at 101%.
Regarding `O=C(C(Nc1ccccc1F)c1ccc(Br)cc1)N1[C@@H](CO)CC[C@H]1c1ccccc1` (single isomer, unassigned) [Cpd 242], the half-maximal inhibitory concentration (IC50) came to 65.5 nM.
`COc1ccc(C(Nc2sccc2C#N)C(=O)N2CCCC2c2ccccc2Cl)cc1` (centres unmarked) [Cpd 105] showed an IC50 of 432 nM. For the same compound, for the setting “canine TRPM8 HEK293, icilin”, the inhibition at 0.5 µM amounted to 88%.
`Nc1cccc(C2CCCN2C(=O)C(Nc2ccccc2F)c2ccc(C(F)(F)F)cc2)c1` (centres unmarked) [Cpd 305]: the IC50 stood at 2 nM. For the same compound, the inhibition at 0.2 µM (canine TRPM8 HEK293, icilin) came to 101%.
For `COc1ccc(NC(C(=O)N2CCCC2c2ccccc2F)c2ccc(Cl)cc2)cc1` (centres unmarked) [Cpd 137], the IC50 worked out at 101 nM. Further, under “canine TRPM8 HEK293, icilin”, the inhibition at 0.5 µM was found to be 81%.
